Results taken from patent US12637428B2, “Isoquinoline derivatives as SIK2 inhibitors” (Cancer Research Technology Limited, priority 2019, dated 2026).
pKi: −log10 of the molar value.

Key:
Format in all cases: biochemical
EPHA2 = biological target: T1, EPHA2 (Homo sapiens, UniProt P29317); assay: EPHA2 kinase assay, IMAP fluorescence polarization; conditions: 50 or 100 μM ATP, Tris pH 8.5, average
T1 construct: purchased Life Technologies
Protocol: (§1) SIK2, SIK1, SIK3, Abl, Src and EPHA2 Kinase Assays
(§2) SIK2, SIK1, SIK3, Abl, Src and EPHA2 assays were performed using an IMAP fluorescence polarization assay format (Molecular Devices Inc.). 0.6-13 nM of each kinase (Life Technologies) was incubated for 60 min at room temperature with 100 nM of either FAM-Abltide, FAM-Srctide or FAM-HDAC protein derived peptide (synthesized by Alta Biosciences, Birmingham UK). Assays were carried out in the presence of 50 or 100 μM ATP in either 20 mM Tris buffer (pH 7.2) containing 4 mM MgCl2, 0.2% BSA and 2 mM DTT (SIK2, SIK1, SIK3, Abl, Src); or 20 mM Tris buffer (pH 8.5) containing 20 mM MgCl2, 0.5% BSA, 0.2% Triton and 5 mM DTT (EPHA2). Typically, dose response analyses were performed over concentration ranges from 0.00005-1 μM. Reactions were stopped by adding 2 assay volumes of 0.25% (v/v) IMAP binding reagent in either an 85:15 ratio (SIK2, SIK1, SIK3, Abl, EPHA2) or 30:70 ratio (Src) of IMAP binding buffers A and B (Molecular Devices). After incubation to allow the detection reagents to bind to the phosphorylated peptide, fluorescence polarization was measured on a Tecan Infinite plate reader at excitation (470 nm) and emission (530 nm) wavelengths. Inhibition was calculated using no inhibitor and no enzyme controls as 0 and 100% inhibition, respectively.
(§3) Table 3 provides details of the inhibitory constant (nM) of compounds of the invention at SIK1, SIK2 and SIK3 and other kinases.

Abl = biological target: T2, Abl (Homo sapiens, UniProt P00519); assay: Abl kinase assay, IMAP fluorescence polarization; conditions: 50 or 100 μM ATP, average
T2 construct: purchased Life Technologies
Protocol: as §1, §2, §3

SIK1 = biological target: T3, SIK1 (Homo sapiens, UniProt P57059); assay: SIK1 kinase assay, IMAP fluorescence polarization; conditions: 50 or 100 μM ATP, average
T3 construct: purchased Life Technologies
Protocol: as §1, §2, §3

Src = biological target: T4, Src (Homo sapiens, UniProt P12931); assay: Src kinase assay, IMAP fluorescence polarization; conditions: 50 or 100 μM ATP, average
T4 construct: purchased Life Technologies
Protocol: as §1, §2, §3

SIK2 = biological target: T5, SIK2 (Homo sapiens, UniProt Q9H0K1); assay: SIK2 kinase assay, IMAP fluorescence polarization; conditions: 50 or 100 μM ATP, average
T5 construct: purchased Life Technologies
Protocol: as §1, §2, §3

SIK3 = biological target: T6, SIK3 (Homo sapiens, UniProt Q9Y2K2); assay: SIK3 kinase assay, IMAP fluorescence polarization; conditions: 50 or 100 μM ATP, average
T6 construct: purchased Life Technologies
Protocol: as §1, §2, §3

T2 sequence (P00519 whole entry): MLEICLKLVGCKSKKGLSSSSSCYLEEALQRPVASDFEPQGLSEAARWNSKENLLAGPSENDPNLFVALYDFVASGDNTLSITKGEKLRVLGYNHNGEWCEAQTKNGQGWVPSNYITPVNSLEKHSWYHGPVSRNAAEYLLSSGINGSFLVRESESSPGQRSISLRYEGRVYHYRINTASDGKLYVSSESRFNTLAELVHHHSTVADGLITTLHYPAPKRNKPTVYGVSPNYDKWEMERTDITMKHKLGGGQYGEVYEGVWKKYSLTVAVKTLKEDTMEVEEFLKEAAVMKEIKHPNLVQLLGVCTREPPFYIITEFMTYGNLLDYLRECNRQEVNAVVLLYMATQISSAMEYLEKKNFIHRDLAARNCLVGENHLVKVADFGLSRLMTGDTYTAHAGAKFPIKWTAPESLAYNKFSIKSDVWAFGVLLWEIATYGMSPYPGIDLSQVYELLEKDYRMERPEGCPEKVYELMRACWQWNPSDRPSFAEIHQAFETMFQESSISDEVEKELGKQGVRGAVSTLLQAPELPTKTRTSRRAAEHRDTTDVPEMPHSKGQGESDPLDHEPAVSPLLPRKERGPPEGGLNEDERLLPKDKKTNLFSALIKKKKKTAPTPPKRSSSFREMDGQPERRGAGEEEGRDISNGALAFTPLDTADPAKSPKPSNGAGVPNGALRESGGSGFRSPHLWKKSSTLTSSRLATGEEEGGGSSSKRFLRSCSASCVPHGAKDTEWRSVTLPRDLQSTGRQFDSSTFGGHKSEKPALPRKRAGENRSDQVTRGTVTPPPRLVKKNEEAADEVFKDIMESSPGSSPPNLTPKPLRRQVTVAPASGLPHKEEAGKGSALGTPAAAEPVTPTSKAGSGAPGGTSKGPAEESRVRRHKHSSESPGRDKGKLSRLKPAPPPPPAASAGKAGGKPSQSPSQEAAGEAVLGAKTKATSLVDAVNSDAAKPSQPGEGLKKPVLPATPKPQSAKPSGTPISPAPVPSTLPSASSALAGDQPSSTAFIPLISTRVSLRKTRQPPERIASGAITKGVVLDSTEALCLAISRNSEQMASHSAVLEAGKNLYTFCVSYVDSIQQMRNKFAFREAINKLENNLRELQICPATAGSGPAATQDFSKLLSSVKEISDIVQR
T4 sequence (P12931 whole entry): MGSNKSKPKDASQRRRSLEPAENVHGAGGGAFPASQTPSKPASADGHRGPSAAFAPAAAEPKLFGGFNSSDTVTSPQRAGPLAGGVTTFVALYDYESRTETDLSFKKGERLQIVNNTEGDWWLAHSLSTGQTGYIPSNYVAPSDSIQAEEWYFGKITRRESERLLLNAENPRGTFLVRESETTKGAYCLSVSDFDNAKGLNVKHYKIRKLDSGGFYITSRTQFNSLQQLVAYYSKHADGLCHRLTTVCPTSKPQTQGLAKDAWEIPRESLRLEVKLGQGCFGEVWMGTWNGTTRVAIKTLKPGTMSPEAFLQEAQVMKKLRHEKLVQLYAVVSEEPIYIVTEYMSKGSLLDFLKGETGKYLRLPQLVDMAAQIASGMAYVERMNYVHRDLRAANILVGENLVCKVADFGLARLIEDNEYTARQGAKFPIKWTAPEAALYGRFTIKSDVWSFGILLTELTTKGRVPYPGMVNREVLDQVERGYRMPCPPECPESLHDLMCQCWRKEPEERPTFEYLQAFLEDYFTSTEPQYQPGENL
T6 sequence (Q9Y2K2 whole entry): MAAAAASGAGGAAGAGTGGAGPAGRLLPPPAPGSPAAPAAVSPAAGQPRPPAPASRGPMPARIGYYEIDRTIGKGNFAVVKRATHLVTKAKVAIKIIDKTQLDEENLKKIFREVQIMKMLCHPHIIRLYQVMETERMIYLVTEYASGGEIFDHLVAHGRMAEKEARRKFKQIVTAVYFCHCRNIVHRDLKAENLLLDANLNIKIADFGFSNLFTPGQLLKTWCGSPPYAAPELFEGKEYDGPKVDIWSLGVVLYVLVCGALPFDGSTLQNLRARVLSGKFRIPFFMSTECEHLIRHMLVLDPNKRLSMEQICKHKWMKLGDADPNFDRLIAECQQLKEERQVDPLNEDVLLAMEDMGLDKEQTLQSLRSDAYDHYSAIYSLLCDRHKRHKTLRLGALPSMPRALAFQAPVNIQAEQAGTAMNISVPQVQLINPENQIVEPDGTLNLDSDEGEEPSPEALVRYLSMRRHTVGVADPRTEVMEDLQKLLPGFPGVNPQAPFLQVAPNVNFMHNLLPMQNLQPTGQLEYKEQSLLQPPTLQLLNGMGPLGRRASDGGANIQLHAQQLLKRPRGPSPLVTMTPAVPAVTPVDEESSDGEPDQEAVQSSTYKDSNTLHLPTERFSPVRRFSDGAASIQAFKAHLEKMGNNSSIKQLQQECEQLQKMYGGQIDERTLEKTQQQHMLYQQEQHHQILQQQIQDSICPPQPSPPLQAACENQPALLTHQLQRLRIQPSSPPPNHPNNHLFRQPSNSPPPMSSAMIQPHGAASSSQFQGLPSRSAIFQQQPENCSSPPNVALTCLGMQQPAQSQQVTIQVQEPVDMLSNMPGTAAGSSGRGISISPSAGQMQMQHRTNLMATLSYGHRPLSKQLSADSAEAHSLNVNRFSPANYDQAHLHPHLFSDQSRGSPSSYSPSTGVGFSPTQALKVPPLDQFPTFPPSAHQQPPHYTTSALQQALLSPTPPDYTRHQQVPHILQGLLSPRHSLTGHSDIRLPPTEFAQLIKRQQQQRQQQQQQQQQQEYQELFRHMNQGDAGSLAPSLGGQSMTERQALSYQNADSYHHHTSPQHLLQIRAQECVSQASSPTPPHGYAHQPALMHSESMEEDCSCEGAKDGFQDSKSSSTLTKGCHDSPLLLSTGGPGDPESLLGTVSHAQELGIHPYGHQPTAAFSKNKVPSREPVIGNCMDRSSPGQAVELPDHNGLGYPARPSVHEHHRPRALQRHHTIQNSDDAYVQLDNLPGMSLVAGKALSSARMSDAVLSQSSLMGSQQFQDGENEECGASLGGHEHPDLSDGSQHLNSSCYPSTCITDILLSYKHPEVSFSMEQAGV
T1 sequence (P29317 24-976): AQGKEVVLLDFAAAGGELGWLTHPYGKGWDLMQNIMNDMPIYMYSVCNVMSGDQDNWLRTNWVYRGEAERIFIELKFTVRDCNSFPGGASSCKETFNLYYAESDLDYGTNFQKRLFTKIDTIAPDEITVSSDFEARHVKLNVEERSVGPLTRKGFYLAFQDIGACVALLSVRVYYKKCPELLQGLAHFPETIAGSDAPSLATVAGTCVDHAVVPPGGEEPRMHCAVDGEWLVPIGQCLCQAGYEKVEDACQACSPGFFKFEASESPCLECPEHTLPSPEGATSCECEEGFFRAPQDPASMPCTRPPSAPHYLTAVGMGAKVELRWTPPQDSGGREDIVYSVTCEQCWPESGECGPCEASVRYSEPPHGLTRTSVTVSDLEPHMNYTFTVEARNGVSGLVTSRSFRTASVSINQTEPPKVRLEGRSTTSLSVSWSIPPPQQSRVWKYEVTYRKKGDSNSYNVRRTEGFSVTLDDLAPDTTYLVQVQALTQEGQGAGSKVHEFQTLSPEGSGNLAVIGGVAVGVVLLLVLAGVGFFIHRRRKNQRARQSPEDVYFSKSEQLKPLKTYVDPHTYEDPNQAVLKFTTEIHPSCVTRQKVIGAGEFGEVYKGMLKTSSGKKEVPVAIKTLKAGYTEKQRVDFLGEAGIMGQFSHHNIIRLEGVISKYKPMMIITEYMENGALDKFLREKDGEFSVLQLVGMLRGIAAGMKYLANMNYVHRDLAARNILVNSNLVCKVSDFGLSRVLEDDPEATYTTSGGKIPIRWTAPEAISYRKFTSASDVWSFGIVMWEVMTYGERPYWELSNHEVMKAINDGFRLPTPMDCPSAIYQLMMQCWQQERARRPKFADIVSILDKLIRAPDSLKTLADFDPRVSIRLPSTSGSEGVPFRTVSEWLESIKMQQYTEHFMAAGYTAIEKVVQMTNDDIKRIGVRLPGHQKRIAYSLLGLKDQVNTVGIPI
T3 sequence (P57059 whole entry): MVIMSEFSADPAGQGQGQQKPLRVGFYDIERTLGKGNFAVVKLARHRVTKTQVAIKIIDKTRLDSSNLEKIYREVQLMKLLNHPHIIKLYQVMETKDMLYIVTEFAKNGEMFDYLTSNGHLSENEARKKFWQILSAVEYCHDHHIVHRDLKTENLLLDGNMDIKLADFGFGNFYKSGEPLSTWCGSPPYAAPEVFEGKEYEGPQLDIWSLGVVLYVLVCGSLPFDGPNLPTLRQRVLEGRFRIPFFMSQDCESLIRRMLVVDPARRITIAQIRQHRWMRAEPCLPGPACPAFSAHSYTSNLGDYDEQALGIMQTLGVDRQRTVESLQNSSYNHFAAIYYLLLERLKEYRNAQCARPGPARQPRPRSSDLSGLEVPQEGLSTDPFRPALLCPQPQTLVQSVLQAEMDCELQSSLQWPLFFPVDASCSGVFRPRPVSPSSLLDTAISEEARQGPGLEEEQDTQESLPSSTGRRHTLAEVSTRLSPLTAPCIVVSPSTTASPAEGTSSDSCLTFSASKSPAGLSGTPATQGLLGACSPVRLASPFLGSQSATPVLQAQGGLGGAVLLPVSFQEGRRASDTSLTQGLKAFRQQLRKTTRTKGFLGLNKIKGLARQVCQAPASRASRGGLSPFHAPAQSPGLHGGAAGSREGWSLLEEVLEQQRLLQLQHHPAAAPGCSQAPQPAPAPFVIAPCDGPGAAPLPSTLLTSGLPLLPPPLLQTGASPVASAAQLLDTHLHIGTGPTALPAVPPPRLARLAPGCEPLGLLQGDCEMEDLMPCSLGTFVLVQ

Compound | pKi (EPHA2) | pKi (Abl) | pKi (SIK1) | pKi (Src) | pKi (SIK2) | pKi (SIK3)
Cc1cccc(Cl)c1-c1cc(NC2CNC2)c2cc(N)ncc2c1 [Example 31, N5-(azetidin-3-yl)-7-(2-chloro-6-methyl-phenyl)isoquinoline-3,5-diamine] | < 6.00 | 6.74 | 8.59 | 6.50 | 9.01 | 8.02
CC(=O)N[C@@H]1CCN(c2cc(-c3c(C)cccc3F)cc3cnc(N)cc23)C1 [Example 113, N-[(3R)-1-[3-amino-7-(2-fluoro-6-methyl-phenyl)-5-isoquinolyl]pyrrolidin-3-yl]acetamide] | < 5.00 | 7.05 | 7.13 | 5.97 | 8.01 | 6.63
Cc1cccc(F)c1-c1cc(N2CC[C@H](N(C)C)C2)c2cc(N)ncc2c1 [Example 59, 5-[(3S)-3-(dimethylamino)pyrrolidin-1-yl]-7-(2-fluoro-6-methyl-phenyl)isoquinolin-3-amine] | < 6.00 | 6.68 | 7.82 | 5.66 | 8.54 | 7.56
Cc1cccc(F)c1-c1cc(O[C@@H]2CCNC2)c2cc(N)ncc2c1 [Example 48, 7-(2-fluoro-6-methyl-phenyl)-5-[(3R)-pyrrolidin-3-yl]oxy-isoquinolin-3-amine] | 6.64 | 7.65 | 9.47 | 6.49 | 10.05 | 9.53
CCN1CCC(Nc2cc(-c3c(C)cccc3F)c(F)c3cnc(N)cc23)CC1 [Example 118, N5-(1-Ethyl-4-piperidyl)-8-fluoro-7-(2-fluoro-6-methyl-phenyl)isoquinoline-3,5-diamine] | < 5.00 | < 5.00 | 7.99 | < 5.00 | 8.21 | 7.11
Cc1cccc(F)c1-c1cc(N2CCC[C@@H](O)C2)c2cc(N)ncc2c1 [Example 108, (3R)-1-[3-amino-7-(2-fluoro-6-methyl-phenyl)-5-isoquinolyl]piperidin-3-ol] | 5.64 | 7.00 | 7.53 | 5.73 | 8.62 | 6.89
Cc1cccc(F)c1-c1cc(NCC2CCN(C)CC2)c2cc(N)ncc2c1 [Example 71, 7-(2-fluoro-6-methyl-phenyl)-N5-[(1-methyl-4-piperidyl)methyl] isoquinoline-3,5-diamine] | < 6.00 | 7.81 | 8.93 | 6.83 | 9.31 | 8.25
Cc1cccc(F)c1-c1cc(N[C@@H]2CCCNC2)c2cc(N)ncc2c1 [Example 25, 7-(2-fluoro-6-methyl-phenyl)-N5-[(3R)-3-piperidyl]isoquinoline-3,5-diamine] | < 6.00 | 8.30 | 9.26 | < 6.00 | 9.88 | 8.89
Cc1cccc(F)c1-c1cc(N2CC[C@@H](N(C)C)C2)c2cc(N)ncc2c1 [Example 58, 5-[(3R)-3-(dimethylamino)pyrrolidin-1-yl]-7-(2-fluoro-6-methyl-phenyl)isoquinolin-3-amine] | < 6.00 | 6.97 | 8.27 | 5.85 | 8.96 | 8.06
Cc1cccc(F)c1-c1cc(N[C@H]2CCN(C)C2)c2cc(N)ncc2c1 [Example 70, 7-(2-fluoro-6-methyl-phenyl)-N5-[(3S)-1-methylpyrrolidin-3-yl]isoquinoline-3,5-diamine] | 7.13 | 8.00 | 9.36 | 7.07 | 9.96 | 8.38
Cc1cccc(F)c1-c1cc(OC2CCNCC2)c2cc(N)ncc2c1 [Example 46, 7-(2-Fluoro-6-methyl-phenyl)-5-(4-piperidyloxy)isoquinolin-3-amine] | 7.41 | 8.44 | 9.72 | 7.02 | 10.69 | 9.90
